Results taken from patent publication US8414989B2, “Cyclodextrin compositions, articles, and methods” (Cellresin Technologies, LLC, priority 2011, dated 2013).

Columns and labels:
[1] = Example 10: 1-MCP headspace release from inkjet printed multilayer and monolayer films; type: physicochemical; settings: 250 mL bottle, 100 μL water
Source text: The ink containing 4 wt-% 1-MCP/c/α-CD from Example 9 was loaded back into the previously emptied cartridge. After refilling the cartridge, it was installed into a HP Inkjet 1600C printer (obtained from the Hewlett-Packard Company of Palo Alto, Calif.) and the calibration or head cleaning function was run. A medium density, black cross-hatch pattern obtained from Microsoft EXCEL software program 2003 (obtained from the Microsoft Corporation of Redman, Wash.) was used to format the entire printable page. The EXCEL pattern image was printed onto 3M, CG3460 Transparency Film (polyester film 120 microns thick for HP inkjet printers; obtained from the 3M Company of St. Paul, Minn.) using the dried, milled ink containing 4 wt-% 1-MCP/c/α-CD of Example 9. Immediately after printing, the printed side of the transparency film was overlaid with a 25 μm polyethylene film and then passed by hand about 10 cm beneath a medium pressure mercury arc lamp operating at 79 watts per cm for 3 seconds exposure to the lamp, with the polyethylene side facing the lamp. The methodology simulates a multilayer flexible-package where the inner surface of an outer, transparent, layer of the multilayer flexible material was printed (referred to as reverse printing). The printed surface was then laminated to other layers. The outside layer itself serves to protect the ink from abuse.
The following technique was designed to measure the permeability of 1-MCP, which was released from the reverse inkjet printed 3M Transparency Film, through PE film as the “inner layer” of a multilayer produce package. In a multilayer produce package, as the humidity rises inside the package by respiration of fresh agricultural products, the water vapor reaches a concentration that allows it to diffuse to the outside of the package. In this example, water also diffuses through the ink layer containing 1-MCP/c/α-CD. The reverse printed ink on the PET film releases 1-MCP which diffuses through the PE film into the interior of package (headspace) under a gradient of low 1-MCP concentration inside the bottle headspace and high 1-MCP concentration within the multilayer structure.
Using a paper cutter, a 5.5 cm by 16 cm rectangle (88 cm^2) was cut from the multilayer structure of the printed, cured ink on the PET sheet overlaid with PE. The rectangle was placed in a 250 mL serum bottle. The bottle was then sealed with a TEFLON® faced silicone septa. Then 100 μL of deionized water was injected into the bottle. […] Bottle headspace was analyzed at 0.17, 0.5, 1, 2, 4, and 24 hours after the injection of water using the technique employed in Example 3. The results in Table 8 illustrate 1-MCP headspace concentration as a function of time for the “multilayer” film.
A second piece of PET transparency film was printed as in Example 9 except that the transparency film was not covered with PE film; the printed ImTech UVBLK Series 912 ink was cured on the PET film surface using a medium pressure mercury arc lamp operating at 79 watts per cm in the same manner as for Example 9. Then, using a paper cutter, a 1.2 cm by 16 cm rectangle (19 cm^2) was cut from the sheet. The rectangle was placed in 250 mL serum bottle. The bottle was then sealed with a TEFLON® faced silicone septa. Then 100 μL of deionized water was injected into the bottle. […] Bottle headspace was analyzed at 0.17, 0.5, 1, 2, 4, and 24 hours after the injection of water using the technique employed in Example 3. The headspace concentration of 1-MCP as a function of time is also reported in Table 9 for the “monolayer” film.

[2] = Example 8: 1-MCP headspace release from cured coating with varying amounts of liquid water; type: physicochemical; settings: 4.0 wt-% 1-MCP/c/α-CD coating, 5 cm x 10 cm, 250 mL bottle
Source text: A 4.0 wt-% 1-MCP/c/α-CD coating blend was made according to the technique of Example 3. A 20 cm by 20 cm polyethylene extrusion coated paper sheet was coated with the mixture using the technique of Example 2. A paper cutter was used to cut nine, 5 cm by 10 cm rectangles from the sheet. The cut, coated rectangles were passed by hand about 10 cm beneath a medium pressure mercury arc lamp operating at 79 watts per cm. After 1.5 seconds exposure to the lamp, the sample was removed. The cured sample was allowed to sit on a laboratory bench overnight coating side down.
Each cured sample was placed in a 250 mL serum bottle. Each bottle was sealed with a TEFLON® faced silicone septum. The amount of liquid water that would, in vapor form, correspond to 100% relative humidity (RH) at 20° C. (provided at http://hyperphysics.phy-astr.gsu.edu/hbase/kinetic/vappre.html#c) is 17.3 g/m^3, or 17.3 g per 1000 L. The density of water at 20° C. is 0.9982 g/mL. Thus, at 20° C., 4.3 μL, of liquid water added to an enclosed volume of 250 mL and containing no other water will vaporize to give 100% RH. Our laboratory facility temperature was 20° C.±5° C.
Three of the bottles were injected with 10 μL, of deionized water, three with 20 μL of deionized water, and three with 50 μL of deionized water. […] The headspace of each bottle was analyzed for 1-MCP at 2 hours, 4 hours, 8 hours, 24 hours, and 48 hours after the injection of water, wherein the headspace analysis was conducted using the analytical technique employed in Example 3.

CC1=CC1 [1-MCP, 1-methylcyclopropene]
Headspace concentration of 1-MCP ([1]; 19 cm^2 Monolayer (printed PET, no PE film), 0.17 hours): 0.50 ppm (v/v)
Headspace concentration of 1-MCP ([1]; 19 cm^2 Monolayer (printed PET, no PE film), 0.5 hours): 0.52 ppm (v/v)
Headspace concentration of 1-MCP ([1]; 19 cm^2 Monolayer (printed PET, no PE film), 1 hour): 0.50 ppm (v/v)
Headspace concentration of 1-MCP ([1]; 19 cm^2 Monolayer (printed PET, no PE film), 2 hours): 0.51 ppm (v/v)
Headspace concentration of 1-MCP ([1]; 19 cm^2 Monolayer (printed PET, no PE film), 4 hours): 0.52 ppm (v/v)
Headspace concentration of 1-MCP ([1]; 19 cm^2 Monolayer (printed PET, no PE film), 24 hours): 0.49 ppm (v/v)
Headspace concentration of 1-MCP ([1]; 88 cm^2 Multilayer (inkjet printed PET overlaid with 25 μm PE), 0.17 hours): 0.25 ppm (v/v)
Headspace concentration of 1-MCP ([1]; 88 cm^2 Multilayer (inkjet printed PET overlaid with 25 μm PE), 0.5 hours): 0.46 ppm (v/v)
Headspace concentration of 1-MCP ([1]; 88 cm^2 Multilayer (inkjet printed PET overlaid with 25 μm PE), 1 hour): 1.1 ppm (v/v)
Headspace concentration of 1-MCP ([1]; 88 cm^2 Multilayer (inkjet printed PET overlaid with 25 μm PE), 2 hours): 1.5 ppm (v/v)
Headspace concentration of 1-MCP ([1]; 88 cm^2 Multilayer (inkjet printed PET overlaid with 25 μm PE), 4 hours): 3.2 ppm (v/v)
Headspace concentration of 1-MCP ([1]; 88 cm^2 Multilayer (inkjet printed PET overlaid with 25 μm PE), 24 hours): 8.3 ppm (v/v)
Headspace concentration of 1-MCP, average ([2]; 10 μL H2O, 2 hr): 1.3 ppm (v/v)
Headspace concentration of 1-MCP, average ([2]; 10 μL H2O, 4 hr): 2.5 ppm (v/v)
Headspace concentration of 1-MCP, average ([2]; 10 μL H2O, 8 hr): 3.8 ppm (v/v)
Headspace concentration of 1-MCP, average ([2]; 10 μL H2O, 24 hr): 7.1 ppm (v/v)
Headspace concentration of 1-MCP, average ([2]; 10 μL H2O, 48 hr): 10.0 ppm (v/v)
Headspace concentration of 1-MCP, average ([2]; 20 μL H2O, 2 hr): 2.6 ppm (v/v)
Headspace concentration of 1-MCP, average ([2]; 20 μL H2O, 4 hr): 5.8 ppm (v/v)
Headspace concentration of 1-MCP, average ([2]; 20 μL H2O, 8 hr): 9.2 ppm (v/v)
Headspace concentration of 1-MCP, average ([2]; 20 μL H2O, 24 hr): 15.7 ppm (v/v)
Headspace concentration of 1-MCP, average ([2]; 20 μL H2O, 48 hr): 20.5 ppm (v/v)
Headspace concentration of 1-MCP, average ([2]; 50 μL H2O, 2 hr): 8.7 ppm (v/v)
Headspace concentration of 1-MCP, average ([2]; 50 μL H2O, 4 hr): 18.6 ppm (v/v)
Headspace concentration of 1-MCP, average ([2]; 50 μL H2O, 8 hr): 30.8 ppm (v/v)
Headspace concentration of 1-MCP, average ([2]; 50 μL H2O, 24 hr): 55.3 ppm (v/v)
Headspace concentration of 1-MCP, average ([2]; 50 μL H2O, 48 hr): 63.0 ppm (v/v)
